Source: patent US20250171457A1, “NITROGEN-CONTAINING HETEROCYCLIC COMPOUND HAVING NRF2 ACTIVATION EFFECT” (CHUGAI SEIYAKU KABUSHIKI KAISHA, priority 2022, published 2025)

These compounds were tested on Nrf2 transcriptional activity (pARE-Luc reporter) in HepG2 cells (assay: In vitro Nrf2 transcriptional activity measurement by ARE-dependent reporter assay in HepG2 cell). Conditions: Homo sapiens; HepG2 cells transfected with pARE-Luc, 4 hours at 37° C.; luciferase activity of Example 1-54 or Example 17-23 at 3.75 μM defined as 100%.
Format: cell-based, human
Procedure, shortened: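 Luminescence readout (Bright-Glo) after 4 h, 37° C compound exposure of HepG2 cells carrying the ARE-luciferase vector pGL4.37. Each well converted to % response versus reference compound at 3.75 μM, and EC50 derived from dose-response curves.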

| Compound | EC50 [nM] |
| --- | --- |
| O=C(O)c1cc(F)c(-c2cccc3c2OCN(C(=O)c2c(Cl)cc(N4CC(F)C4)cc2Cl)C3)cc1N1C2CCC1COC2 [Compound 1-20, 4-[3-[2,6-Dichloro-4-(3-fluoroazetidin-1-yl)benzoyl]-2,4-dihydro-1,3-benzoxazin-8-yl]-5-fluoro-2-(3-oxa-8-azabicyclo[3.2.1]octan-8-yl)benzoic acid] | 3.2 |
| O=C(O)c1cc(F)c(-c2cccc3c2OCN(C(=O)c2c(Cl)cc(N4C[C@@H]5C[C@H]4CN5C4COC4)cc2Cl)C3)cc1N1C2CCC1COC2 [Compound 10-7, 4-[3-[2,6-Dichloro-4-[(1S,4S)-5-(oxetan-3-yl)-2,5-diazabicyclo[2.2.1]heptan-2-yl]benzoyl]-2,4-dihydro-1,3-benzoxazin-8-yl]-5-fluoro-2-(3-oxa-8-azabicyclo[3.2.1]octan-8-yl)benzoic acid] | 23 |
| CC1(N2CCN(c3cc(Cl)c(C(=O)N4COc5c(cccc5-c5cc(N6CCOCC6)c(C(=O)O)cc5F)C4)c(Cl)c3)CC2)COC1 [Compound 4-57, 4-[3-[2,6-Dichloro-4-[4-(3-methyloxetan-3-yl)piperazin-1-yl]benzoyl]-2,4-dihydro-1,3-benzoxazin-8-yl]-5-fluoro-2-morpholin-4-ylbenzoic acid] | 4.8 |
| C[C@@H]1CN(c2cc(Cl)c(C(=O)N3COc4c(cccc4-c4cc(N5C6CCC5COC6)c(C(=O)O)cc4F)C3)c(Cl)c2)CCN1C [Compound 10-3, 4-[3-[2,6-Dichloro-4-[(3R)-3,4-dimethylpiperazin-1-yl]benzoyl]-2,4-dihydro-1,3-benzoxazin-8-yl]-5-fluoro-2-(3-oxa-8-azabicyclo[3.2.1]octan-8-yl)benzoic acid] | 1.5 |
| Cn1cc(-c2cc(Cl)c(C(=O)N3COc4c(ccc(F)c4-c4cc(N5CCOCC5)c(C(=O)O)cc4F)C3)c(Cl)c2)cn1 [Compound 13-8, 4-[3-[2,6-Dichloro-4-(1-methylpyrazol-4-yl)benzoyl]-7-fluoro-2,4-dihydro-1,3-benzoxazin-8-yl]-5-fluoro-2-morpholin-4-ylbenzoic acid] | 5.4 |
| O=C(O)c1cc(F)c(-c2cccc3c2OCN(C(=O)c2c(Cl)cc(N4CC(N5CCOCC5)C4)cc2Cl)C3)cc1N1C2CCC1COC2 [Compound 4-58, 4-[3-[2,6-Dichloro-4-(3-morpholin-4-ylazetidin-1-yl)benzoyl]-2,4-dihydro-1,3-benzoxazin-8-yl]-5-fluoro-2-(3-oxa-8-azabicyclo[3.2.1]octan-8-yl)benzoic acid] | 5.2 |
| COCCN1C[C@H]2CC[C@@H]1CN2c1cc(Cl)c(C(=O)N2COc3c(cccc3-c3cc(N4C5CCC4COC5)c(C(=O)O)cc3F)C2)c(Cl)c1 [Compound 7-16, 4-[3-[2,6-Dichloro-4-[(1R,4R)-5-(2-methoxy-ethyl)-2,5-diazabicyclo[2.2.2]octan-2-yl]benzoyl]-2,4-dihydro-1,3-benzoxazin-8-yl]-5-fluoro-2-(3-oxa-8-azabicyclo[3.2.1]octan-8-yl)benzoic acid] | 7.4 |
| O=C(O)c1cc(F)c(-c2cccc3c2OCN(C(=O)c2c(Cl)cc(N4CC5(COC5)C4)cc2Cl)C3)cc1N1C2CCC1COC2 [Compound 4-6, 4-[3-[2,6-Dichloro-4-(2-oxa-6-azaspiro[3.3]heptan-6-yl)benzoyl]-2,4-dihydro-1,3-benzoxazin-8-yl]-5-fluoro-2-(3-oxa-8-azabicyclo[3.2.1]octan-8-yl)benzoic acid] | 8 |
| O=C(O)c1cc(F)c(-c2cccc3c2OCN(C(=O)c2c(Cl)cc(N4CCOCC4)cc2Cl)C3)cc1N1C2CCC1COC2 [Compound 4-19, 4-[3-(2,6-Dichloro-4-morpholin-4-ylbenzoyl)-2,4-dihydro-1,3-benzoxazin-8-yl]-5-fluoro-2-(3-oxa-8-azabicyclo[3.2.1]octan-8-yl)benzoic acid] | 2.9 |
| O=C(O)c1cc(F)c(-c2cccc3c2OCN(C(=O)c2c(Cl)cc(N4CC5CCC(C4)N5C4COC4)cc2Cl)C3)cc1N1C2CCC1COC2 [Compound 9-17, 4-[3-[2,6-Dichloro-4-[8-(oxetan-3-yl)-3,8-diazabicyclo[3.2.1]octan-3-yl]benzoyl]-2,4-dihydro-1,3-benzoxazin-8-yl]-5-fluoro-2-(3-oxa-8-azabicyclo[3.2.1]octan-8-yl)benzoic acid] | 7.5 |
| O=C(O)c1cc(F)c(-c2cccc3c2OCN(C(=O)c2c(Cl)cc(-c4cc5ccccc5o4)cc2Cl)C3)cc1N1C2CCC1COC2 [Compound 3-23, 4-[3-[4-(1-Benzofuran-2-yl)-2,6-dichlorobenzoyl]-2,4-dihydro-1,3-benzoxazin-8-yl]-5-fluoro-2-(3-oxa-8-azabicyclo[3.2.1]octan-8-yl)benzoic acid] | 21 |
| COCCOc1cc(Cl)c(C(=O)N2CCc3c(cccc3[C@H](C)[C@H](C)C(=O)O)C2)c(Cl)c1 [Compound 17-23, (2S,3R)-3-[2-[2,6-Dichloro-4-(2-methoxyethoxy)benzoyl]-3,4-dihydro-1H-isoquinolin-5-yl]-2-methylbutanoic acid] | 110 |
| COCCN1CCN(c2cc(Cl)c(C(=O)N3COc4c(cccc4-c4cc(N5C6CCC5COC6)c(C(=O)O)cc4F)C3)c(Cl)c2)CC1C [Compound 8-5, 4-[3-[2,6-Dichloro-4-[(3S)-4-(2-methoxyethyl)-3-methylpiperazan-1-yl]benzoyl]-2,4-dihydro-1,3-benzoxazin-8-yl]-5-fluoro-2-(3-oxa-8-azabicyclo[3.2.1]octan-8-yl)benzoic acid] | 2.4 |
| O=C(O)c1cc(F)c(-c2cccc3c2OCN(C(=O)c2c(Cl)cc(N4CC(n5cccn5)C4)cc2Cl)C3)cc1N1C2CCC1COC2 [Compound 11-3, 4-[3-[2,6-Dichloro-4-(3-pyrazol-1-ylazetidin-1-yl)benzoyl]-2,4-dihydro-1,3-benzoxazin-8-yl]-5-fluoro-2-(3-oxa-8-azabicyclo[3.2.1]octan-8-yl)benzoic acid] | 9.5 |
| Cn1ncc2cc(-c3cc(Cl)c(C(=O)N4COc5c(cccc5-c5cc(N6C7CCC6COC7)c(C(=O)O)cc5F)C4)c(Cl)c3)ccc21 [Compound 3-15, 4-[3-[2,6-Dichloro-4-(1-methylindazol-5-yl)benzoyl]-2,4-dihydro-1,3-benzoxazin-8-yl]-5-fluoro-2-(3-oxa-8-azabicyclo[3.2.1]octan-8-yl)benzoic acid] | 8.4 |
| COC[C@H](O)Cn1cc(-c2cc(Cl)c(C(=O)N3COc4c(cccc4-c4ccc(C(=O)O)c(N5CCOCC5)c4)C3)c(Cl)c2)cn1 [Compound 15-4, 4-[3-[2,6-Dichloro-4-[1-[(2R)-2-hydroxy-3-methoxypropyl]pyrazol-4-yl]benzoyl]-2,4-dihydro-1,3-benzoxazin-8-yl]-2-morpholin-4-ylbenzoic acid] | 6.8 |
| O=C(O)c1cc(F)c(-c2cccc3c2OCN(C(=O)c2c(Cl)cc(N4CC5(C4)CN(C4CC4)C5)cc2Cl)C3)cc1N1C2CCC1COC2 [Compound 9-4, 4-[3-[2,6-Dichloro-4-(2-cyclopropyl-2,6-diazaspiro[3.3]heptan-6-yl)benzoyl]-2,4-dihydro-1,3-benzoxazin-8-yl]-5-fluoro-2-(3-oxa-8-azabicyclo[3.2.1]octan-8-yl)benzoic acid] | 7.5 |
| O=C(O)c1ccc(-c2cccc3c2OCN(C(=O)c2c(Cl)cc(OCCCCO)cc2Cl)C3)cc1N1CCOCC1 [Compound 4-43, 4-[3-[2,6-Dichloro-4-(4-hydroxybutoxy)benzoyl]-2,4-dihydro-1,3-benoxazin-8-yl]-2-morpholin-4-ylbenzoic acid] | 7.4 |
| CN1CCC(N2CCN(c3cc(Cl)c(C(=O)N4COc5c(cccc5-c5ccc(C(=O)O)c(N6CCOCC6)c5)C4)c(Cl)c3)CC2)CC1 [Compound 1-63, 4-[3-[2,6-Dichloro-4-[4-(1-methylpiperidin-4-yl)piperazin-1-yl]benzoyl]-2,4-dihydro-1,3-benzoxazin-8-yl]-2-morpholin-4-ylbenzoic acid] | 2.1 |
| O=C(O)c1cc(F)c(-c2cccc3c2OCN(C(=O)c2c(Cl)cc(N4CC5(C4)CC5(F)F)cc2Cl)C3)cc1N1C2CCC1COC2 [Compound 1-7, 4-[3-[2,6-Dichloro-4-(2,2-difluoro-5-azaspiro[2.3]hexan-5-yl)benzoyl]-2,4-dihydro-1,3-benzoxazin-8-yl]-5-fluoro-2-(3-oxa-8-azabicyclo[3.2.1]octan-8-yl)benzoic acid] | 2 |
| CO[C@H]1CCOC12CN(c1cc(Cl)c(C(=O)N3COc4c(cccc4-c4cc(N5C6CCC5COC6)c(C(=O)O)cc4F)C3)c(Cl)c1)C2 [Compound 1-31, 4-[3-[2,6-Dichloro-4-[(8S)-8-methoxy-5-oxa-2-azaspiro[3.4]octan-2-yl]benzoyl]-2,4-dihydro-1,3-benzoxazin-8-yl]-5-fluoro-2-(3-oxa-8-azabicyclo[3.2.1]octan-8-yl)benzoic acid] | 1.9 |
| CN1CCN(c2cc(Cl)c(C(=O)N3COc4c(cccc4-c4cc(N5C6CCC5COC6)c(C(=O)O)cc4F)C3)c(Cl)c2)CC(F)(F)C1 [Compound 1-45, 4-[3-[2,6-Dichloro-4-(6,6-difluoro-4-methyl-1,4-diazepan-1-yl)benzoyl]-2,4-dihydro-1,3-benzoxazin-8-yl]-5-fluoro-2-(3-oxa-8-azabicyclo[3.2.1]octan-8-yl)benzoic acid] | 3.7 |
| C[C@@H]1CN(c2cc(Cl)c(C(=O)N3COc4c(cccc4-c4cc(N5C6CCC5COC6)c(C(=O)O)cc4F)C3)c(Cl)c2)[C@@H](C)CN1C [Compound 9-6, 4-[3-[2,6-Dichloro-4-[(2S,5R)-2,4,5-trimethylpiperazin-1-yl]benzoyl]-2,4-dihydro-1,3-benzoxazin-8-yl]-5-fluoro-2-(3-oxa-8-azabicyclo[3.2.1]octan-8-yl)benzoic acid] | 5.7 |
| O=C(O)c1cc(F)c(-c2cccc3c2OCN(C(=O)c2c(Cl)cc(N4C[C@@H]5C[C@H]4CO5)cc2Cl)C3)cc1N1C2CCC1COC2 [Compound 4-17, 4-[3-[2,6-Dichloro-4-[(1S,4S)-2-oxa-5-azabicyclo[2.2.1]heptan-5-yl]benzoyl]-2,4-dihydro-1,3-benzoxazin-8-yl]-5-fluoro-2-(3-oxa-8-azabicyclo[3.2.1]octan-8-yl)benzoic acid] | 4 |
